In brackets after ≈: the same amount, converted by molar mass. Entries after “also recorded” stand apart in the source; their conditions may differ. Read-outs that look alike come from different tables or passages of the source.
What was measured:
[1] = test system: Trichophyton mentagrophytes; assay: In vitro activity against Trichophyton mentagrophytes, MIC by twofold macro-broth dilution (Test Example 1); format: cell-based; conditions: for MIC: Trichophyton mentagrophytes, 7 days at 27° C.
Experimental: (§1) Minimum inhibitory concentrations (MICs) were determined by the twofold macro-broth dilution method with Sabouraud's glucose broth which constituted with 1% bactopeptone and 4% glucose. To each tube containing 9.8 ml of the broth, 0.1 ml of each testing compound dissolved in DMSO and 0.1 ml of a conidial suspension (1×10^6 conidia/ml) were added. The fungal growth was observed after incubation for 7 days at 27° C. The MIC was determined as the lowest drug concentration which prevented a visible fungal growth.

[2] = test system: dermatophytes; assay: Antifungal activity against dermatophytes compared with racemic mixtures (general statement); conditions: especially highly sensitive strains
[3] = test system: Candida albicans; assay: In vitro antifungal activity against Candida albicans, MIC by twofold micro-broth dilution (Test Example 3); format: cell-based; conditions: 48 hours at 35° C., pH 7.0, read-out: MIC
Experimental: MICs were determined by the twofold micro-broth dilution method with RPMI 1640 buffered with morphorino-propanesulfonic acid to a final molarity of 0.165M (pH 7.0). One hundred μl of a yeast cell suspension (1 to 5×10^3 cells/ml) and 100 μl of the compound-containing medium were pipetted into each well flat-bottomed microtiter plates. After incubation for 48 hours at 35° C., the turbidity of each well was measured at 630 nm.

[4] = test system: trichophyton mentagrophytes TIMM 2789; assay: Therapeutic efficacy on experimental tinea pedis in guinea pigs (Test Example 2); format: in vivo
Experimental: Male Hartley guinea pigs (Japan SLC Inc.) weighing 400 to 620 g were used for the infection study. One side of a paper disc (1.5 mm thick×8 mm diameter) was covered with a piece of aluminum foil while the other side was free to carry the inoculum suspension. The disc was immersed with 50 μl of the inoculum suspension (trichophyton mentagrophytes TIMM 2789, 1×10^8 conidia/ml), and was then fixed on the planta pedis of animal feet with an adhesive elastic tape. The disc was removed on the seventh day postinfection. Each agent dissolved in PEG 400 (0.1 ml/locus) was topically applied to the whole soles of guinea pigs once a day for 3 consecutive days, starting on the 10th day postinfection. Five days after the last treatment, the skin tissue from each planta pedis and the corresponding tarsus of all animals was cut into small blocks (about 2×2 mm). Ten skin blocks obtained from each part of the foot were implanted on a Sabouraud's glucose agar plate containing antibiotics, and were cultured at 27° C. for 14 days. The skin blocks yielding fungal growth were regarded as culture-positive, and the foot (planta pedis plus tarsus) with more than one culture-positive skin block was considered fungus-positive. In addition, the intensity of infection was assessed by the scores based on the number of culture-positive skin blocks. Namely, +10, +9, +8, +7, +6, +5, +4, +3, +2, +1 or 0 was given as the score according to the corresponding number of culture-positive skin blocks out of ten skin blocks studied. Statistical analyses for the rate of fungus-positive feet and the average intensity of infection were assessed by Fisher's exact probably test and Mann-Whitney's U-test, respectively.

[5] = test system: Aspergillus fumigatus; assay: In vitro antifungal activity against Aspergillus fumigatus, MIC by twofold agar dilution (Test Example 4); format: cell-based; conditions: read-out: MIC
Experimental: MICs were determined by the twofold agar dilution method with casitone agar which constituted with 0.9% bactocasitone, 1% bacto-yeast extract, 2% glucose, 0.1% KH2 PO4, 0.1% Na2 HPO4, 1% Na3 C6 H5 O7 and 1.6% agar. A loopful of each inoculum (1×10^6 conidia/ml) was streaked onto the agar plate containing a compound, and a fungal growth was observed after incubation for 48 hours at 35° C. The MIC was determined as the lowest drug concentration which prevented a visible fungal growth.

[6] = test system: Trichophyton rubrum; assay: In vitro activity against Trichophyton rubrum, MIC by twofold macro-broth dilution (Test Example 1); format: cell-based
Experimental: as §1

[7] = 0.5% in PEG 400, topical once a day for 3 days, p < 0.01 vs untreated and PEG 400 control
[8] = 1% in PEG 400, topical once a day for 3 days, p < 0.01 vs untreated and PEG 400, Compound (A) also p < 0.05 vs 1% Racemic Compound (A)
[9] = 1% in PEG 400, topical once a day for 3 days, p < 0.01 vs untreated and PEG 400 control

## N#C/C(=C1/SC[C@@H](c2ccccc2Cl)S1)n1ccnc1 [Compound (A), R-(+)-(E)-[4-(2-chlorophenyl)-1,3-dithiolan-2-ylidene]-1-imidazolylacetonitrile]
[1]; MIC for T. mentagrophytes TIMM 2789
  in vitro antifungal activity relative to Racemic Compound (A): 4 times
[1]; IFO5466, 168 h, strain IFO 5466
  MIC: 20 ng/mL (≈ 0.0625 µM)
[1]; IFO5809, 168 h, strain IFO 5809
  MIC: 5 ng/mL (≈ 0.0156 µM)
[1]; IFO5810, 168 h, strain IFO 5810
  MIC: 5 ng/mL (≈ 0.0156 µM)
[1]; IFO5811, 168 h, strain IFO 5811
  MIC: 20 ng/mL (≈ 0.0625 µM)
[1]; IFO5929, 168 h, strain IFO 5929
  MIC: 10 ng/mL (≈ 0.0313 µM)
[1]; TIMM1189, 168 h, strain TIMM 1189
  MIC: 10 ng/mL (≈ 0.0313 µM)
[1]; TIMM1814, 168 h, strain TIMM 1814
  MIC: 20 ng/mL (≈ 0.0625 µM)
[1]; TIMM1815, 168 h, strain TIMM 1815
  MIC: 20 ng/mL (≈ 0.0625 µM)
[1]; TIMM1817, 168 h, strain TIMM 1817
  MIC: 20 ng/mL (≈ 0.0625 µM)
[1]; TIMM2789, 168 h, strain TIMM 2789
  MIC: 5 ng/mL (≈ 0.0156 µM)
[2]
  antifungal activity relative to the racemic mixtures: several times
[3]; IFO0197, strain IFO 0197, 80% inhibition
  MIC: 62.5 ng/mL (≈ 0.195 µM)
[3]; IFO0579, strain IFO 0579, 80% inhibition
  MIC: 31.3 ng/mL (≈ 0.0979 µM)
[3]; IFO1269, strain IFO 1269, 80% inhibition
  MIC: 62.5 ng/mL (≈ 0.195 µM)
[3]; IFO1270, strain IFO 1270, 80% inhibition
  MIC: 250 ng/mL (≈ 0.782 µM)
[3]; IFO1385, strain IFO 1385, 80% inhibition
  MIC: 62.5 ng/mL (≈ 0.195 µM)
[3]; IFO1386, strain IFO 1386, 80% inhibition
  MIC: 125 ng/mL (≈ 0.391 µM)
[3]; TIMM3163, strain TIMM 3163, 80% inhibition
  MIC: 4000 ng/mL (≈ 12.5 µM)
[3]; TIMM3164, strain TIMM 3164, 80% inhibition
  MIC: 250 ng/mL (≈ 0.782 µM)
[3]; TIMM3165, strain TIMM 3165, 80% inhibition
  MIC: 2000 ng/mL (≈ 6.25 µM)
[3]; TIMM3166, strain TIMM 3166, 80% inhibition
  MIC: 1000 ng/mL (≈ 3.13 µM)
[4]; 0.5% Compound (A) vs 1% Racemic Compound (A)
  effect relative to 1% Racemic Compound (A): twice; also recorded: more than twice
[4]; [7]
  Average intensity of infection, planta pedis (score 0 to +10): +0.3
  Average intensity of infection, tarsus (score 0 to +10): 0
  Fungus-positive rate (%): 20%
  Fungus-positive rate: The number of positive feet/The total number of feet: 2/10
[4]; [8]
  Fungus-positive rate (%): 0%
  Fungus-positive rate: The number of positive feet/The total number of feet: 0/10
[4]; [9]
  Average intensity of infection, planta pedis (score 0 to +10): 0
  Average intensity of infection, tarsus (score 0 to +10): 0
[4]; 1% treated group
  curative effect (in words): mycologically complete healing
[4]; at the same concentration
  curative effect compared with Racemic Compound (A): markedly higher
[5]; TIMM0063, strain TIMM 0063, 48 hours at 35° C.
  MIC: 0.63 ng/mL (≈ 0.00197 µM)
[5]; TIMM0078, strain TIMM 0078, 48 hours at 35° C.
  MIC: 0.63 ng/mL (≈ 0.00197 µM)
[5]; TIMM1728, strain TIMM 1728, 48 hours at 35° C.
  MIC: 1.3 ng/mL (≈ 0.00406 µM)
[5]; TIMM1767, strain TIMM 1767, 48 hours at 35° C.
  MIC: 1.3 ng/mL (≈ 0.00406 µM)
[6]
  sensitivity (in words): highly sensitive
[6]; IFO5467, 168 h, strain IFO 5467, 7 days at 27° C.
  MIC: 1.3 ng/mL (≈ 0.00406 µM)
[6]; IFO5807, 168 h, strain IFO 5807, 7 days at 27° C.
  MIC: 2.5 ng/mL (≈ 0.00782 µM)
[6]; IFO5808, 168 h, strain IFO 5808, 7 days at 27° C.
  MIC: 2.5 ng/mL (≈ 0.00782 µM)
[6]; IFO6203, 168 h, strain IFO 6203, 7 days at 27° C.
  MIC: 2.5 ng/mL (≈ 0.00782 µM)
[6]; IFO6204, 168 h, strain IFO 6204, 7 days at 27° C.
  MIC: 2.5 ng/mL (≈ 0.00782 µM)
[6]; IFO9185, 168 h, strain IFO 9185, 7 days at 27° C.
  MIC: 1.3 ng/mL (≈ 0.00406 µM)
[6]; TIMM1822, 168 h, strain TIMM 1822, 7 days at 27° C.
  MIC: 1.3 ng/mL (≈ 0.00406 µM)
[6]; TIMM1823, 168 h, strain TIMM 1823, 7 days at 27° C.
  MIC: 2.5 ng/mL (≈ 0.00782 µM)
[6]; TIMM1824, 168 h, strain TIMM 1824, 7 days at 27° C.
  MIC: 1.3 ng/mL (≈ 0.00406 µM)
[6]; TIMM1830, 168 h, strain TIMM 1830, 7 days at 27° C.
  MIC: 0.63 ng/mL (≈ 0.00197 µM)

Reference: patent US5900488A, “Method for treating mycosis using imidazolylacetonitrile derivatives” (Nihon Nohyaku Co., Ltd., priority 1995, dated 1999)
